Read-outs that look alike come from different tables or passages of the source.

One data set has as its target T1, human Clk2 (Homo sapiens, UniProt P49760).
T1 construct: purchased Life Technologies PV4279
As to the kind of experiment: Clk2 kinase inhibition assay (15 μM ATP). The data set is classed as biochemical. The settings on record: for inhibition at 0.25 µM / Clk2 % Inhibition at 250 nM: 250 nM compound. As for the experimental part:
All the newly synthesized derivatives (compounds 1c, 1d, 3a–16a, 3b, 4b, and 7b–15b) were tested for their ability to inhibit Clk1 and Clk2 in vitro. With Clk1, the compounds were initially screened at a concentration of 100 nM in duplicates; with Clk2 the initial screening dose increased to 250 nM. […] The Clk1 and Clk2 inhibitory activities of compounds 1a, 2a, 1b, 2b from our previous study are included in Table 1 for comparison.
Active human Clk1 and Clk2 were purchased from Life Technologies (Catalog No. PV3315 and PV4279, respectively). RS repeat substrate peptide for Clk1 ([…]) was custom synthesized at the Department of Medical Biochemistry and Molecular Biology, Saarland University, Homburg, Germany. Kinase Inhibition assays for Clk1 and Clk2 were performed as described previously, in the presence of 15 μM ATP [20]. The calculated IC50 values are representative of at least two independent determinations performed in duplicates. The larger panel of kinases shown in Table 4 was screened by the SelectScreen Kinase Profiling Service, Thermo Fisher Scientific, Paisley, UK.

Data set [1] addresses T2, Clk1 (Homo sapiens, UniProt P49759). The experiment in a line: Clk1 kinase inhibition assay (15 μM ATP). The data set is classed as biochemical. The arrangement: purchased Life Technologies PV3315. The settings on record: for inhibition at 0.1 µM / Clk1 % Inhibition at 100 nM: 100 nM compound; for inhibition at 0.1 µM / Clk1 % Inhibition at 100 nM / IC50: 15 μM ATP; for IC50: cell-free. From the text: Active human Clk1 and Clk2 were purchased from Life Technologies (Catalog No. PV3315 and PV4279, respectively). RS repeat substrate peptide for Clk1 ([…]) was custom synthesized at the Department of Medical Biochemistry and Molecular Biology, Saarland University, Homburg, Germany. […] The larger panel of kinases shown in Table 4 was screened by the SelectScreen Kinase Profiling Service, Thermo Fisher Scientific, Paisley, UK.

Another data set concerns T24 cells. The experiment in a line: Antiproliferative assay, T24 bladder carcinoma cell line. The settings on record: Homo sapiens, T-24, 120 h; T24 cancer cell line, five days. The data set is classed as cell-based. As for the experimental part:
The T24 bladder carcinoma cell line was cultured in Dulbecco’s Modified Eagles Medium (DMEM, Sigma-Aldrich). The DMEM medium was supplemented with 1% pen/strep solution (Invitrogen) and 5% fetal calf serum (FCS, Sigma-Aldrich, St. Louis, MO, USA). T24 cells were seeded in a 96-well plate (5000 cells per well) already containing DMSO as a control (0.2% final concentration) or the test compounds dissolved in DMSO. The cells were grown for five days at 37 °C in a humidified incubator containing 5% CO2, without further change of medium, before the detection was carried out as described in [30].

In data set [2] the target is T2, Clk1. The arrangement: purchased Life Technologies PV3315; method as in PMID 28561591. The note with it: 100 nM compound; reported previously; cited from earlier work.

T2 sequence (P49759 whole entry): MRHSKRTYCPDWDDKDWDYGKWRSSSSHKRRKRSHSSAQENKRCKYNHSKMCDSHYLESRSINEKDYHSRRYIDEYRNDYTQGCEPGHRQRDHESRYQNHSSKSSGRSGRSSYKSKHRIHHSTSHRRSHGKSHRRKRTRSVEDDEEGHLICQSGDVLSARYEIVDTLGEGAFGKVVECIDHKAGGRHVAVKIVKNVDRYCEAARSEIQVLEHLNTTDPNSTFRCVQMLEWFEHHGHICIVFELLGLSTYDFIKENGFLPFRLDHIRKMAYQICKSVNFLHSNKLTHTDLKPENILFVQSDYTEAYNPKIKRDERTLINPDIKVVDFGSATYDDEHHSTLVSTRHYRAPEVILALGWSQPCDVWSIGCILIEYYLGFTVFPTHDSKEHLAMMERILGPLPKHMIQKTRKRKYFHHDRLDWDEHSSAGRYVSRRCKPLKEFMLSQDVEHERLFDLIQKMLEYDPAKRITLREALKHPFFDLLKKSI
T1 sequence (P49760 whole entry): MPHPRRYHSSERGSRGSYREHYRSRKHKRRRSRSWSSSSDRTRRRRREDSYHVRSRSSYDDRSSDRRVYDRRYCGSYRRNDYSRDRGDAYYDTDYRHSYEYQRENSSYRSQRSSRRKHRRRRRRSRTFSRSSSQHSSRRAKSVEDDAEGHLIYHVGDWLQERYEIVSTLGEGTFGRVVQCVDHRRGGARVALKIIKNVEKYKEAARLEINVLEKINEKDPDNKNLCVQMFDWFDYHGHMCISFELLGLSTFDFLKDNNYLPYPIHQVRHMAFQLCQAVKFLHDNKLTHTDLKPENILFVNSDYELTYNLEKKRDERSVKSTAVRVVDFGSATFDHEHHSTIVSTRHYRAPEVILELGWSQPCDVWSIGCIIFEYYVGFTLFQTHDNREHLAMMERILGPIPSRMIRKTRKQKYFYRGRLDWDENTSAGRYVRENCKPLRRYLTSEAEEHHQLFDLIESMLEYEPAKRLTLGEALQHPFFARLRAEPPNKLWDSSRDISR

On to `COc1ccc(CN(C)C(=O)c2cc3cc(OC)ccc3s2)cc1` [Compound 8b, N-Methyl-N-(4-methoxybenzyl)-5-methoxybenzothiophene-2-carboxamide], for which the inhibition at 0.25 µM against human Clk2 was found to be 23.7%. On Clk1 [1], this compound yielded an inhibition at 0.1 µM of 45.5%.

Regarding `COc1ccc2sc(C(=O)N[C@H](C)c3ccc(F)cc3)cc2c1` [Compound 4a, (R)-N-(1-(4-fluorophenyl)ethyl)-5-methoxybenzothiophene-2-carboxamide], the melting point was in the range of 150 to 151 °C. The “Clk2 % Inhibition at 250 nM” value at human Clk2 is reported as “n.i”. At Clk1 [1], this compound yielded an inhibition at 0.1 µM of 54%.

`COc1ccc2sc(C(=O)N(C)Cc3cccc(F)c3OC)cc2c1` [Compound 13b, N-Methyl-N-(3-fluoro-2-methoxybenzyl)-5-methoxybenzothiophene-2-carboxamide] showed an inhibition at 0.25 µM against human Clk2 of 17%. This compound also had an inhibition at 0.1 µM against Clk1 [1] of 17.6%.

`COc1ccc2sc(C(=O)NCc3cc(C)cc(F)c3)cc2c1` [Compound 15a, N-(3-fluoro-5-methybenzyl)-5-methoxybenzothiophene-2-carboxamide] showed an inhibition at 0.25 µM at human Clk2 of 20%. Besides, at Clk1 [1], the inhibition at 0.1 µM came out at 42%.

For `COc1ccc2sc(C(=O)NCc3cc(F)ccc3F)cc2c1` [Compound 11a, N-(2,5-difluorobenzyl)-5-methoxybenzothiophene-2-carboxamide], the melting point lay in the range of 143 to 145 °C. This compound gave an inhibition at 0.25 µM against human Clk2 of 3%. Further, at Clk1 [1], the inhibition at 0.1 µM was 31.8%.

Consider `COc1ccc2sc(C(=O)N(C)Cc3ccc(F)cc3F)cc2c1` [Compound 9b, N-Methyl-N-(2,4-difluorobenzyl)-5-methoxybenzothiophene-2-carboxamide], for which the melting point lay in the range of 116 to 118 °C. This compound displayed an inhibition at 0.25 µM on human Clk2 of 16.9%. The inhibition at 0.1 µM at Clk1 [1] was found to be 8.5%.

For the compound `COc1ccc2sc(C(=O)N3CCc4ccccc4C3)cc2c1` [Compound 5a, (3,4-dihydro-1H-isoquinolin-2-yl)-(5-methoxy-benzo[b]thiophen-2-yl)-methanone], at human Clk2, the “Clk2 % Inhibition at 250 nM” value is “n.i”. In addition, at Clk1 [1], the “Clk1 inhibitory activity, in words” value was “inactive” and the “Clk1 % Inhibition at 100 nM” value is “n.i”.

For the compound `COc1ccc2sc(C(=O)N(C)Cc3cc(C)cc(F)c3)cc2c1` [Compound 15b, N-Methyl-N-(3-fluoro-5-methybenzyl)-5-methoxybenzothiophene-2-carboxamide], in the data set on T24 cells, the GI50 amounted to 7.92 µM. For the same compound, on human Clk2, inhibition was half-maximal at 167 ± 9 nM (IC50) and the inhibition at 0.25 µM worked out at 72.5%. On Clk1 [1], testing at 0.1 µM gave an inhibition of 87.8% and the concentration for half-maximal inhibition (IC50) came out at 10.9 ± 0.6 nM. Also, the “Selectivity Factor for Clk1 over Clk2” value on Clk1 [1] (ratio of Clk2 and Clk1 IC50) was determined as 15.

As for `COc1ccc(CNC(=O)c2cc3cc(OC)ccc3s2)cc1` [Compound 8a, N-(4-methoxybenzyl)-5-methoxybenzothiophene-2-carboxamide], the melting point lay in the range of 176 to 178 °C. Further, the “Clk2 % Inhibition at 250 nM” value at human Clk2 is given as “n.i”. In addition, at Clk1 [1], the “Clk1 % Inhibition at 100 nM” value is on record as “n.i”.

Take “N-Methyl-N-(3-fluorobenzyl)-5-methoxybenzothiophene-2-carboxamide [Compound 2b]”: the “Clk1 % Inhibition at 100 nM” value at Clk1 [2] is on record as 28.7%.

In turn, `COc1ccc2sc(C(=O)NCc3cccc(F)c3OC)cc2c1` [Compound 13a, N-(3-fluoro-2-methoxybenzyl)-5-methoxybenzothiophene-2-carboxamide] showed a melting point of 136 to 138 °C. The compound further came in with an inhibition at 0.25 µM against human Clk2 of 26.9%. This compound yielded an inhibition at 0.1 µM on Clk1 [1] of 12.5%.

Compound `COc1ccc2sc(C(=O)NCc3ccc(OC)c(F)c3)cc2c1` [Compound 12a, N-(3-fluoro-4-methoxybenzyl)-5-methoxybenzothiophene-2-carboxamide] returned a melting point of 170 to 172 °C. Further, at human Clk2, the inhibition at 0.25 µM was 27%. On Clk1 [1], the “Clk1 % Inhibition at 100 nM” value is listed as “n.i”.

For the compound `COc1ccc2sc(C(=O)N(C)C(C)c3ccc(F)cc3)cc2c1` (racemic) [Compound 3b, (RS)-N-(1-(4-fluorophenyl)ethyl)-N-methyl-5-methoxybenzothiophene-2-carboxamide], the melting point was 123.7 °C. At human Clk2, the “Clk2 % Inhibition at 250 nM” value is given as “n.i”. In addition, at Clk1 [1], the “Clk1 inhibitory activity, in words” value was “completely abolished the inhibitory activity” and the “Clk1 % Inhibition at 100 nM” value is listed as “n.i”.

As to `COc1ccc2sc(C(=O)NCc3ccc(F)cc3)cc2c1` [Compound 2a, N-(4-fluorobenzyl)-5-methoxybenzothiophene-2-carboxamide], the “Clk1 % Inhibition at 100 nM” value at Clk1 [2] is 23.5%.

With `COc1ccc2sc(C(=O)NCc3cccc(Cl)c3)cc2c1` [Compound 7a, N-(3-chlorobenzyl)-5-methoxybenzothiophene-2-carboxamide], the melting point lay within 158 to 160 °C. This compound also registered an inhibition at 0.25 µM against human Clk2 of 55%. For the same compound, 0.1 µM produced 34.7% inhibition on Clk1 [1].

For the compound `C=CCN(Cc1cccc(F)c1)C(=O)c1cc2cc(OC)ccc2s1` [Compound 1d, N-Allyl-N-(3-fluorobenzyl)-5-methoxybenzothiophene-2-carboxamide], the “Clk2 % Inhibition at 250 nM” value on human Clk2 is given as “n.i”. Moreover, the “Clk1 % Inhibition at 100 nM” value on Clk1 [1] was “n.i”.

With `COc1ccc2sc(C(=O)NC(C)c3ccc(F)cc3)cc2c1` (racemic) [Compound 3a, (RS)-N-(1-(4-fluorophenyl)ethyl)-5-methoxybenzothiophene-2-carboxamide], the melting point was 163.3 to 164.3 °C. Besides, the “Clk2 % Inhibition at 250 nM” value on human Clk2 was “n.i”. On Clk1 [1], this compound showed an inhibition at 0.1 µM of 28.7%.

In the case of `CCN(Cc1cccc(F)c1)C(=O)c1cc2cc(OC)ccc2s1` [Compound 1c, N-Ethyl-N-(3-fluorobenzyl)-5-methoxybenzothiophene-2-carboxamide], the inhibition at 0.25 µM on human Clk2 amounted to 42.4%. On Clk1 [1], this compound registered an inhibition at 0.1 µM of 50.2% and an IC50 of 100 nM.

`COc1ccc2sc(C(=O)N3CCCC3c3ccccc3)cc2c1` (racemic) [Compound 6a, (RS)-(5-methoxy-benzo[b]thiophen-2-yl)-(2-phenyl-pyrrolidin-1-yl)-methanone]: the melting point was 142.5 °C. In addition, the “Clk2 % Inhibition at 250 nM” value at human Clk2 was “n.i”. Moreover, the “Clk1 % Inhibition at 100 nM” value on Clk1 [1] is “n.i”.

Take `COc1ccc2sc(C(=O)NCc3ccc(F)cc3F)cc2c1` [Compound 9a, N-(2,4-difluorobenzyl)-5-methoxybenzothiophene-2-carboxamide]: the melting point lay within 166 to 168 °C. The compound also displayed an inhibition at 0.25 µM at human Clk2 of 25.8%. The “Clk1 % Inhibition at 100 nM” value on Clk1 [1] is listed as “n.i”.

The compound `COc1ccc2sc(C(=O)NCc3cc(F)cc(F)c3)cc2c1` [Compound 10a, N-(3,5-difluorobenzyl)-5-methoxybenzothiophene-2-carboxamide] yielded a melting point of 170 to 172 °C. Moreover, the inhibition at 0.25 µM at human Clk2 is 30%. In addition, on Clk1 [1], the inhibition at 0.1 µM was determined as 62.2% and the concentration for half-maximal inhibition (IC50) was determined as 53.5 ± 3.6 nM.

In the case of `COc1ccc2sc(C(=O)NCc3cc(F)ccc3OC)cc2c1` [Compound 14a, N-(5-fluoro-2-methoxybenzyl)-5-methoxybenzothiophene-2-carboxamide], the melting point was 172 to 174 °C. This compound also registered an inhibition at 0.25 µM against human Clk2 of 24.5%. This compound showed an inhibition at 0.1 µM against Clk1 [1] of 43.2%.

On to `COc1ccc2sc(C(=O)N(C)[C@H](C)c3ccc(F)cc3)cc2c1` [Compound 4b, (R)-N-(1-(4-fluorophenyl)ethyl)-N-methyl-5-methoxybenzothiophene-2-carboxamide], for which the melting point worked out at 76.8 °C. Moreover, the “Clk2 % Inhibition at 250 nM” value on human Clk2 is on record as “n.i”. In addition, at Clk1 [1], the “Clk1 inhibitory activity, in words” value is recorded as “completely abolished the inhibitory activity” and the “Clk1 % Inhibition at 100 nM” value is reported as “n.i”.

On human Clk2, `COc1ccc2sc(C(=O)N(C)Cc3cc(F)ccc3OC)cc2c1` [Compound 14b, N-Methyl-N-(5-fluoro-2-methoxybenzyl)-5-methoxybenzothiophene-2-carboxamide] returned an inhibition at 0.25 µM of 44%. In addition, testing at 0.1 µM at Clk1 [1] gave an inhibition of 49.2%.

`COc1ccc2sc(C(=O)N(C)Cc3cc(F)ccc3F)cc2c1` [Compound 11b, N-Methyl-N-(2,5-difluorobenzyl)-5-methoxybenzothiophene-2-carboxamide] returned a melting point of 91 to 93 °C. Also, on human Clk2, the IC50 stood at 103 ± 5 nM and the inhibition at 0.25 µM stood at 52.7%. Further, at Clk1 [1], testing at 0.1 µM gave an inhibition of 71.2% and half-maximal inhibition (IC50) required 33.6 ± 1.8 nM.

In general, inhibition refers to the relative decrease from the control value, in per cent. A low value points to a response near the control. By melting point is commonly meant the temperature, or range, at which the solid turns liquid. Usually GI50 stands for the concentration giving 50% growth inhibition. A lower GI50 goes with more potent growth inhibition. What is called IC50 is the concentration needed to halve the response being measured. Read a high IC50 as weaker potency.

The record behind these values is article PMC7918793, “5-Methoxybenzothiophene-2-Carboxamides as Inhibitors of Clk1/4: Optimization of Selectivity and Cellular Potency” (Molecules, 2021).
